Measurements: patent publication US11168079B2, “Alkene compounds as farnesoid x receptor modulators” (BRISTOL-MYERS SQUIBB COMPANY, priority 2017, dated 2021)

Biological target: T1, human FXR (Homo sapiens, UniProt Q96RI1)
T1 sequence (Q96RI1 262-486 limits assumed): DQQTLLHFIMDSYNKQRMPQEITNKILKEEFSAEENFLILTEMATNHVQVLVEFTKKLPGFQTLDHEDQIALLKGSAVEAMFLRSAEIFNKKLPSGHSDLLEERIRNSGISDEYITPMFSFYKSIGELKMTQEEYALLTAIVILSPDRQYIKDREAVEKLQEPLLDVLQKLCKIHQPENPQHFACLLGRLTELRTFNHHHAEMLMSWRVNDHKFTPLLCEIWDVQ
Assay: transient human FXR/Gal4-luciferase reporter assay (HLE GAL-FXR)
Conditions: HEK293 cells

[1] = FXR EC50 (nM), Gal4-hFXR fusion reporter, Table 1
[2] = HLE GAL-FXR EC50, Gal4-hFXR fusion reporter

Experimental: A Gal4-hFXR fusion construct reporter system was used as the primary assay to characterize compound activity. A construct including 5 copies of the Gal4 promoter response element upstream of a firefly luciferase reporter cDNA was stably expressed in HEK293 cells. This reporter cell line was maintained in Dulbecco's Modified Eagle's medium (DMEM; Gibco) supplemented with 1% penicillin-streptomycin (P/S) solution, 500 μg/mL Zeocin and 10% charcoal/dextran-treated fetal bovine serum (cs-FBS) at 37° C. in a humidified 5% CO2 atmosphere. Another plasmid was constructed in which the human cytomegalovirus promoter in the pcDNA3.1 vector directs the expression of the cDNA encoding a fusion protein comprised of the DNA binding domain from the Gal4 transcription factor fused to the ligand binding domain from human FXR.
For compound testing, 100 nL of the compounds (serial dilutions in DMSO) are dispensed with an Echo acoustic dispenser (Labcyte) into the wells of a Corning/Costar clear bottom 384-well white plate. The transfected cells are harvested, counted, and diluted such that 10-25,000 cells in 25 μL are plated into each well of the 384-well compound assay plate. The compound-treated cells are incubated overnight at 37° C. in a humidified 5% CO2 atmosphere. The next morning 25 μL of Steady-Glo (Promega) are added to each well of the plate, the mixture is incubated for 15 min. with shaking, and luminescence is measured on an Envision (Perkin Elmer) plate reader.

| EC50 [1] | EC50 [2] | Structure (SMILES) |
| --- | --- | --- |
| 1690 nM |  | O=C(O)c1cc(O[C@@H]2CCOC2)c2cc(N3CC(/C=C/c4c(-c5cccnc5C(F)(F)F)noc4C4CC4)C3)ccc2n1 [Example 188] |
| 19 nM |  | O=C(O)c1cc(O[C@H]2C[C@H](F)C2)c2cc(N3CC4C(/C=C/c5c(-c6c(Cl)cncc6Cl)noc5C5CC5)C4C3)ccc2n1 (stereo partly shown) [Example 204] |
| 58 nM |  | O=C(O)c1cc(OC2CCC2)c2cc(N3CC(/C=C/c4c(-c5ccccc5C(F)(F)F)noc4C4CC4)C3)ccc2n1 [Example 150] |
| 2 nM |  | O=C(O)c1cc(OC2CCC2)c2cc(N3CC[C@H](/C=C/c4c(-c5ccccc5C(F)(F)F)noc4C4CC4)C3)ccc2n1 [Example 148] |
| 159 nM |  | O=C(O)c1cc(O[C@H]2C[C@H](F)C2)c2cc(N3CC(/C=C/c4c(-c5ccccc5C(F)(F)F)noc4C4CC4)C3)ccc2n1 [Example 194] |
| 107 nM |  | O=C(O)c1cnn(-c2ccc(N3CC(/C=C/c4c(-c5c(Cl)cncc5Cl)noc4C4CC4)C3)cc2)c1 [Example 220] |
| 53 nM |  | O=C(O)c1cc(OC2CC2)c2cc(N3CC(/C=C/c4c(-c5ccccc5C(F)(F)F)noc4C4CC4)C3)ccc2n1 [Example 196] |
|  | 50 nM | O=C(O)c1cc(OC2CC2)c2cc(N3CC4C(/C=C/c5c(-c6ccccc6C(F)(F)F)noc5C5CC5)C4C3)ccc2n1 (stereo not shown) [Example 184, (E)-4-Cyclopropoxy-6-(6-(2-(5-cyclopropyl-3-(2-(trifluoromethyl)phenyl)-isoxazol-4-yl)vinyl)-3-azabicyclo[3.1.0]hexan-3-yl)quinoline-2-carboxylic acid] |
| 424 nM |  | CCOc1cc(N2CC3C(/C=C/c4c(-c5ccccc5C(F)(F)F)noc4C4CC4)C3C2)cnc1C(=O)O (stereo not shown) [Example 163] |
| 192 nM |  | O=C(O)c1cnc2cc(N3CC4C(/C=C/c5c(-c6c(Cl)cncc6Cl)noc5C5CC5)C4C3)ccc2n1 (stereo not shown) [Example 161] |
| 29 nM |  | COc1cc(C(=O)O)nc2ccc(N3CC(/C=C/c4c(-c5c(Cl)cncc5Cl)noc4C4CC4)C3)cc12 [Example 166] |
| 228 nM |  | COCc1cc(C(=O)O)nc2ccc(N3CC(/C=C/c4c(-c5ccccc5C(F)(F)F)noc4C4CC4)C3)cc12 [Example 186] |
| 286 nM |  | O=C(O)c1cc(O[C@H]2C[C@@H](F)C2)c2cc(N3CC(/C=C/c4c(-c5cccnc5C(F)(F)F)noc4C4CC4)C3)ccc2n1 [Example 195] |
| 424 nM |  | O=C(O)c1ccc(N2CC3C(/C=C/c4c(-c5c(Cl)cccc5Cl)noc4C4CC4)C3C2)nc1 (stereo not shown) [Example 144] |
| 348 nM |  | O=C(O)c1cc(O[C@H]2C[C@@H](F)C2)c2cc(N3CC(/C=C/c4c(-c5ccccc5C(F)(F)F)noc4C4CC4)C3)ccc2n1 [Example 187] |
| 11 nM |  | O=C(O)c1cc(O[C@H]2C[C@@H](F)C2)c2cc(N3CC4C(/C=C/c5c(-c6ccccc6C(F)(F)F)noc5C5CC5)C4C3)ccc2n1 (stereo partly shown) [Example 185] |
| 139 nM |  | O=C(O)c1cc(OC2CCC2)c2cc(N3CC[C@@H](/C=C/c4c(-c5ccccc5C(F)(F)F)noc4C4CC4)C3)ccc2n1 [Example 147] |
| 1400 nM |  | O=C(O)c1cc(OC2CC2)c2cc(N3CC(/C=C/c4c(-c5ccccc5OC(F)(F)F)noc4C(F)(F)F)C3)ccc2n1 [Example 217] |
| 72 nM |  | O=C(O)c1cc(OCC(F)F)c2cc(N3CC(/C=C/c4c(-c5ccccc5C(F)(F)F)noc4C4CC4)C3)ccc2n1 [Example 182] |
| 165 nM |  | O=C(O)c1cc(O[C@@H]2CCOC2)c2cc(N3CC4C(/C=C/c5c(-c6cccnc6C(F)(F)F)noc5C5CC5)C4C3)ccc2n1 (stereo partly shown) [Example 157] |
| 166 nM |  | O=C(O)c1cc(-c2ccc(N3CC(/C=C/c4c(-c5c(Cl)cncc5Cl)noc4C4CC4)C3)nc2)cc(C(F)(F)F)c1 [Example 224] |

The next lines start with the compound.

| Structure (SMILES) | EC50 [1] | EC50 [2] |
| --- | --- | --- |
| O=C(O)c1cc2ccc(N3CCC(/C=C/c4c(-c5ccccc5OC(F)(F)F)noc4C4CC4)CC3)cc2nn1 [Example 67] | 1210 nM |  |
| O=C(O)c1ccn2nc(N3CCC(/C=C/c4c(-c5c(Cl)cccc5Cl)noc4C4CC4)CC3)ncc12 [Example 29] | 60 nM |  |
| O=C(O)c1cc(F)c2nc(N3CC4C(/C=C/c5c(-c6c(Cl)cncc6Cl)noc5C5CC5)C4C3)sc2c1 (stereo not shown) [Example 77] | 786 nM |  |
| O=C(O)c1cc(OC2COC2)c2cc(N3CC4C(/C=C/c5c(-c6c(Cl)cncc6Cl)noc5C5CC5)C4C3)ccc2n1 (stereo not shown) [Example 126] | 18 nM |  |
| O=C(O)c1cnc(N2CCC(/C=C/c3c(-c4c(Cl)cccc4Cl)noc3C3CC3)CC2)cn1 [Example 24] | 127 nM |  |
| O=C(O)c1cc(OC(F)F)c2cc(N3CC4C(/C=C/c5c(-c6c(Cl)cncc6Cl)noc5C5CC5)C4C3)ccc2n1 (stereo not shown) [Example 91] | 4 nM |  |
| O=C(O)c1ccc(N2CC3C(/C=C/c4c(-c5c(Cl)cncc5Cl)noc4C4CC4)C3C2)nc1 (stereo not shown) [Example 102] | 1270 nM |  |
| COc1cc(C(=O)O)nc2ccc(N3CC4C(/C=C/c5c(-c6c(Cl)cncc6Cl)noc5C5CC5)C4C3)cc12 (stereo not shown) [Example 80] | 38 nM |  |
| Cn1cc(C(=O)O)c2ccc(N3CC4C(/C=C/c5c(-c6c(Cl)cccc6Cl)noc5C5CC5)C4C3)cc21 (stereo not shown) [Example 68] | 17 nM |  |
| COc1cc(C(=O)O)nc2sc(N3CC4C(/C=C/c5c(-c6c(Cl)cncc6Cl)noc5C5CC5)C4C3)nc12 (stereo not shown) [Example 124] | 284 nM |  |
| O=C(O)c1ccc2nc(N3CC4C(/C=C/c5c(-c6c(Cl)cccc6Cl)noc5C5CC5)C4C3)sc2c1 (stereo not shown) [Example 46] | 117 nM |  |
| COc1cc(C(=O)O)nc2sc(N3CC4C(/C=C/c5c(-c6ccccc6C(F)(F)F)noc5C5CC5)C4C3)nc12 (stereo not shown) [Example 139] | 163 nM |  |
| O=C(O)c1cc2ccc(N3CC4C(/C=C/c5c(-c6c(Cl)cncc6Cl)noc5C5CC5)C4C3)cc2cn1 (stereo not shown) [Example 73] | 673 nM |  |
| O=C(O)c1ccc2nc(N3CC4C(/C=C/c5c(-c6c(Cl)cncc6Cl)noc5C5CC5)C4C3)sc2c1 (stereo not shown) [Example 78] | 515 nM |  |
| O=C(O)c1ccc2nc(N3CCC(/C=C/c4c(-c5c(Cl)cccc5Cl)noc4C4CC4)CC3)ccc2c1 [Example 33] | 15 nM |  |
| O=C(O)c1cc(C(F)(F)F)c2cc(N3CCC(/C=C/c4c(-c5c(Cl)cncc5Cl)noc4C4CC4)CC3)ccc2n1 [Example 83] | 42 nM |  |
| O=C(O)c1cc(OC2CCC2)c2cc(N3CC4C(/C=C/c5c(-c6ccccc6C(F)(F)F)noc5C5CC5)C4C3)ccc2n1 (stereo not shown) [Example 130] | 50 nM |  |

| Structure (SMILES) | EC50 [1] | EC50 [2] |
| --- | --- | --- |
| C/C(=C\c1c(-c2c(Cl)cccc2Cl)noc1C1CC1)C1CCN(c2ccc3nc(C(=O)O)ccc3c2)CC1 [Example 5, (E)-6-(4-(1-(5-Cyclopropyl-3-(2,6-dichlorophenyl)isoxazol-4-yl)prop-1-en-2-yl)piperidin-1-yl)quinoline-2-carboxylic acid] |  | 1250 nM |
| O=C(O)c1cc(OC(F)F)c2cc(N3CCC(/C=C/c4c(-c5c(Cl)cncc5Cl)noc4C4CC4)CC3)ccc2n1 [Example 92] | 3 nM |  |
| O=C(O)c1cnc(N2CC3C(/C=C/c4c(-c5c(Cl)cccc5Cl)noc4C4CC4)C3C2)s1 (stereo not shown) [Example 86] | 1010 nM |  |
| O=C(O)c1cc(C(F)(F)F)c2cc(N3CC4C(/C=C/c5c(-c6c(Cl)cncc6Cl)noc5C5CC5)C4C3)ccc2n1 (stereo not shown) [Example 72] | 98 nM |  |
| O=C(O)c1cc(OC2CCOC2)c2cc(N3CC4C(/C=C/c5c(-c6c(Cl)cncc6Cl)noc5C5CC5)C4C3)ccc2n1 (stereo not shown) [Example 120] | 18 nM |  |
| O=C(O)c1cc(C(F)(F)F)c2cc(N3CCC(/C=C/c4c(-c5ccncc5Cl)noc4C4CC4)CC3)ccc2n1 [Example 84] | 215 nM |  |
| Cn1cc(C(=O)O)c2ccc(N3CC4C(/C=C/c5c(-c6c(Cl)cncc6Cl)noc5C5CC5)C4C3)cc21 (stereo not shown) [Example 89] | 31 nM |  |
| O=C(O)c1cccc(N2CCC(/C=C/c3c(-c4c(Cl)cccc4Cl)noc3C3CC3)CC2)n1 [Example 13] | 206 nM |  |
| COc1nc(C(=O)O)cc2ccc(N3CC4C(/C=C/c5c(-c6ccccc6C(F)(F)F)noc5C5CC5)C4C3)cc12 (stereo not shown) [Example 135] | 416 nM |  |
| O=C(O)c1cc2ccc(N3CCC(/C=C/c4c(-c5c(Cl)cccc5Cl)noc4C4CC4)CC3)cc2cn1 [Example 37] | 17 nM |  |
| O=C(O)c1cc(C(F)(F)F)c2cc(N3CCC(/C=C/c4c(-c5ccccc5C(F)(F)F)noc4C4CC4)CC3)ccc2n1 [Example 45] | 12 nM |  |
| O=C(O)c1cccc(-c2noc(N3CC4C(/C=C/c5c(-c6c(Cl)cncc6Cl)noc5C5CC5)C4C3)n2)c1 (stereo not shown) [Example 133, (E)-3-(5-(6-(2-(5-cyclopropyl-3-(3,5-dichloropyridin-4-yl)isoxazol-4-yl)vinyl)-3-azabicyclo[3.1.0]hexan-3-yl)-1,2,4-oxadiazol-3-yl)benzoic acid] |  | 1290 nM |
| O=C(O)c1cc(F)c2nc(N3CCC(/C=C/c4c(-c5c(Cl)cccc5Cl)cnn4C4CC4)CC3)sc2c1 [Example 12, (E)-2-(4-(2-(1-Cyclopropyl-4-(2,6-dichlorophenyl)-1H-pyrazol-5-yl)vinyl)piperidin-1-yl)-4-fluorobenzo[d]thiazole-6-carboxylic acid] |  | 226 nM |
| O=C(O)c1cc2ccc(N3CC4C(/C=C/c5c(-c6ccccc6C(F)(F)F)noc5C5CC5)C4C3)cc2cn1 (stereo not shown) [Example 76] | 413 nM |  |
| CC1(/C=C/c2c(-c3c(Cl)cccc3Cl)noc2C2CC2)CCN(c2ccc3nc(C(=O)O)ccc3c2)CC1 [Example 7, (E)-6-(4-(2-(5-cyclopropyl-3-(2,6-dichlorophenyl)isoxazol-4-yl)vinyl)-4-methylpiperidin-1-yl)quinoline-2-carboxylic acid] |  | 227 nM |
| Clc1cccc(Cl)c1-c1noc(C2CC2)c1/C=C/C1CCN(c2ccc(-c3nnn[nH]3)cc2)CC1 [Example 56, (E)-4-(2-(1-(4-(1H-Tetrazol-5-yl)phenyl)piperidin-4-yl)vinyl)-5-cyclopropyl-3-(2,6-dichlorophenyl)isoxazole] |  | 3 nM |
| O=C(O)c1cc(OC(F)F)c2cc(N3CCC(/C=C/c4c(-c5cccnc5C(F)(F)F)noc4C4CC4)CC3)ccc2n1 [Example 98] | 3 nM |  |
